Experiments:
[1] = target: PP2A Phosphatase (Homo sapiens, UniProt P67775); experiment: Okadaic acid PP2A phosphatase inhibition, Fe(III) fluorescence quench assay; assay type: biochemical; details: PP2A 22 milli Units, 30 μM Lissamine Rhodamine phospho Kemptide, 60 minutes, 96-well; read-out: calculated IC50
Source text: Okadaic Acid, another phosphatase inhibitor, solubilized in DMSO, was titrated in triplicate in phosphatase dilution buffer over 24 wells in white 96-well polystyrene COSTAR plate. […] The results are illustrated in FIG. 10.

[2] = target: PKA (protein kinase A) catalytic unit, Promega; experiment: cell-based or functional assay

Sequence of PP2A Phosphatase (P67775 whole entry): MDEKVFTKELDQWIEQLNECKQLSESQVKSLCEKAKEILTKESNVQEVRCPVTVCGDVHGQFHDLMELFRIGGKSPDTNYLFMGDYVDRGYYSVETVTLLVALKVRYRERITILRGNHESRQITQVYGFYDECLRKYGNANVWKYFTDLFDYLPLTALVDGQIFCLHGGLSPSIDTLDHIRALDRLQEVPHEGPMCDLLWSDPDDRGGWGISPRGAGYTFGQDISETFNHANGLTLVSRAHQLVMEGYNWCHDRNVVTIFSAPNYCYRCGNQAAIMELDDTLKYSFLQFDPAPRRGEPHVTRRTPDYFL

Row | IC50 of inhibition of PKA kinase activity (phosphorylation of Lissamine Rhodamine-labeled Kemptide, Fe(III) fluorescence quench readout) [2] [nM] | Compound | IC50 [1] [nM]
1 |  | C=C1[C@@H](O)[C@@H]2O[C@]3(CC[C@H](/C=C/[C@@H](C)[C@@H]4CC(C)=C[C@@]5(O[C@H](C[C@@](C)(O)C(=O)O)CC[C@H]5O)O4)O3)CC[C@H]2O[C@@H]1[C@@H](O)C[C@H](C)[C@H]1O[C@@]2(CCCCO2)CC[C@H]1C [Okadaic Acid] | 1.5
2 | 2.6 | PKI, a known synthetic peptide inhibitor of PKA | 

Reference: US7306928B2, “Homogenous assay for enzymatic activity” (Pierce Biotechnology, Inc., priority 2002, dated 2007)
